Laboratory results as given in the NIST ThermoML archive (doi:10.1021/acs.jced.7b00201).

Assay: xn = mol fraction of the nth substance listed
Conditions: 100 kPa, Liquid; for viscosity: Falling or rolling sphere viscometry; for mass density: Vibrating tube method

OCC1CC1 [cyclopropylmethanol] + CCCCC1CCCCC1
Conditions	mass density [kg/m3]	viscosity [mPa·s]
293.15 K, x1 = 0.1039	803.82	1.319
293.15 K, x1 = 0.2031	809.39	1.383
293.15 K, x1 = 0.3022	815.9	1.475
293.15 K, x1 = 0.3997	823.34	1.602
293.15 K, x1 = 0.4993	832.12	1.778
293.15 K, x1 = 0.5994	842.55	2.006
293.15 K, x1 = 0.7	855.1	2.299
293.15 K, x1 = 0.797	869.68	2.67
293.15 K, x1 = 0.9004	889.05	3.23
293.15 K, x1 = 1	912.99	4.029
298.15 K, x1 = 0.1039	800.02	1.212
298.15 K, x1 = 0.2031	805.52	1.265
298.15 K, x1 = 0.3022	812	1.343
298.15 K, x1 = 0.3997	819.39	1.451
298.15 K, x1 = 0.4993	828.15	1.601
298.15 K, x1 = 0.5994	838.56	1.79
298.15 K, x1 = 0.7	851.09	2.038
298.15 K, x1 = 0.797	865.66	2.355
298.15 K, x1 = 0.9004	885.02	2.821
298.15 K, x1 = 1	908.94	3.485
303.15 K, x1 = 0.1039	796.16	1.117
303.15 K, x1 = 0.2031	801.61	1.162
303.15 K, x1 = 0.3022	808.04	1.228
303.15 K, x1 = 0.3997	815.4	1.319
303.15 K, x1 = 0.4993	824.14	1.448
303.15 K, x1 = 0.5994	834.52	1.607
303.15 K, x1 = 0.7	847.04	1.817
303.15 K, x1 = 0.797	861.6	2.084
303.15 K, x1 = 0.9004	880.95	2.48
303.15 K, x1 = 1	904.85	3.037
308.15 K, x1 = 0.1039	792.28	1.034
308.15 K, x1 = 0.2031	797.68	1.072
308.15 K, x1 = 0.3022	804.06	1.128
308.15 K, x1 = 0.3997	811.39	1.205
308.15 K, x1 = 0.4993	820.09	1.315
308.15 K, x1 = 0.5994	830.45	1.45
308.15 K, x1 = 0.7	842.95	1.628
308.15 K, x1 = 0.797	857.5	1.855
308.15 K, x1 = 0.9004	876.84	2.192
308.15 K, x1 = 1	900.74	2.661
313.15 K, x1 = 0.1039	788.38	0.96
313.15 K, x1 = 0.2031	793.72	0.984
313.15 K, x1 = 0.3022	800.06	1.04
313.15 K, x1 = 0.3997	807.34	1.106
313.15 K, x1 = 0.4993	816.02	1.198
313.15 K, x1 = 0.5994	826.34	1.314
313.15 K, x1 = 0.7	838.82	1.466
313.15 K, x1 = 0.797	853.35	1.659
313.15 K, x1 = 0.9004	872.69	1.947
313.15 K, x1 = 1	896.58	2.344
318.15 K, x1 = 0.1039	784.47	0.895
318.15 K, x1 = 0.2031	789.74	0.919
318.15 K, x1 = 0.3022	796.03	0.963
318.15 K, x1 = 0.3997	803.27	1.019
318.15 K, x1 = 0.4993	811.9	1.098
318.15 K, x1 = 0.5994	822.19	1.197
318.15 K, x1 = 0.7	834.65	1.327
318.15 K, x1 = 0.797	849.17	1.491
318.15 K, x1 = 0.9004	868.5	1.735
318.15 K, x1 = 1	892.38	2.074
323.15 K, x1 = 0.1039	780.53	0.837
323.15 K, x1 = 0.2031	785.74	0.861
323.15 K, x1 = 0.3022	791.97	0.894
323.15 K, x1 = 0.3997	799.16	0.941
323.15 K, x1 = 0.4993	807.75	1.01
323.15 K, x1 = 0.5994	818.01	1.094
323.15 K, x1 = 0.7	830.44	1.205
323.15 K, x1 = 0.797	844.94	1.345
323.15 K, x1 = 0.9004	864.26	1.555
323.15 K, x1 = 1	888.13	1.843
328.15 K, x1 = 0.1039	776.57	0.784
328.15 K, x1 = 0.2031	781.71	0.808
328.15 K, x1 = 0.3022	787.87	0.832
328.15 K, x1 = 0.3997	795.01	0.873
328.15 K, x1 = 0.4993	803.56	0.931
328.15 K, x1 = 0.5994	813.78	1.003
328.15 K, x1 = 0.7	826.18	1.098
328.15 K, x1 = 0.797	840.66	1.22
328.15 K, x1 = 0.9004	859.97	1.399
328.15 K, x1 = 1	883.84	1.646
333.15 K, x1 = 0.1039	772.6	0.736
333.15 K, x1 = 0.2031	777.65	0.758
333.15 K, x1 = 0.3022	783.75	0.777
333.15 K, x1 = 0.3997	790.83	0.812
333.15 K, x1 = 0.4993	799.33	0.862
333.15 K, x1 = 0.5994	809.5	0.923
333.15 K, x1 = 0.7	821.87	1.005
333.15 K, x1 = 0.797	836.33	1.109
333.15 K, x1 = 0.9004	855.62	1.264
333.15 K, x1 = 1	879.49	1.476
338.15 K, x1 = 0.1039	768.6	0.697
338.15 K, x1 = 0.2031	773.56	0.718
338.15 K, x1 = 0.3022	779.59	0.733
338.15 K, x1 = 0.3997	786.61	0.767
338.15 K, x1 = 0.4993	795.05	0.801
338.15 K, x1 = 0.5994	805.18	0.853
338.15 K, x1 = 0.7	817.51	0.923
338.15 K, x1 = 0.797	831.94	1.012
338.15 K, x1 = 0.9004	851.21	1.146
338.15 K, x1 = 1	875.07	1.328
343.15 K, x1 = 0.1039	764.58	0.656
343.15 K, x1 = 0.2031	769.4	0.668
343.15 K, x1 = 0.3022	775.39	0.684
343.15 K, x1 = 0.3997	782.35	0.709
343.15 K, x1 = 0.4993	790.73	0.746
343.15 K, x1 = 0.5994	800.8	0.79
343.15 K, x1 = 0.7	813.09	0.85
343.15 K, x1 = 0.797	827.49	0.928
343.15 K, x1 = 0.9004	846.74	1.043
343.15 K, x1 = 1	870.62	1.201
